For one data set, the system named is AhR in FL83B cells. As to the kind of experiment: AhR and pAhR expression in hepatocytes (western blot). In kind it is cell-based, mouse. How it is done: Cells. Murine hepatocytes (FL83B) and human hepatocytes (HepG2) (obtained from the American Type Culture Collection, ATCC®, Manassas, Va.) were grown in tissue culture plates with F12K medium (Thermo Fisher Scientific,) supplemented with 10% heat-inactivated fetal bovine serum (FBS), 100 U ml-1 penicillin, and […] streptomycin at 37° C. in a 5% CO2 atmosphere. Human monocytes (U937) were grown in RPMI 1640 medium (Thermo Fisher Scientific, Waltham, Mass.) supplemented with 10% FBS. For fecal exosomes (with or without PKH26 labeling) treatment for FL83B and HepG2 cells, 2×10^4 cells were seeded into six well plates. After achieving 50-60% confluence, fecal exosomes (numbers indicated in Figures) were added and incubated for 16 hours at 37° C. in a 5% CO2 atmosphere. Cells were washed with PBS and processed for imaging, RNA isolation, and protein extraction. […]
Western blot analysis. […] Protein concentrations were determined using the BioRad Protein Assay Reagent. […] Individual protein was detected with specific antibodies and visualized by infrared fluorescent secondary antibodies (Table 2). The protein bands were visualized and analyzed on an Odyssey CLx Imager (LiCor Inc, Lincoln, Nebr.).

The test system of data set [1] is mouse hepatocytes (FL83B cells). As to the kind of experiment: Glucose uptake assay (Glucose Uptake-Glo). In kind it is cell-based. The following applies: two-log difference in PC (34:2) concentration. The protocol: Glucose uptake assay. Glucose uptake was performed using the Glucose Uptake-Glo™ Assay from Promega (J1341) in accordance with the manufacturer's instructions. Briefly, 2×10^4 cells were seeded into 96 well tissue culture plate in complete medium. […] Cells were treated with 1 nM of insulin for an additional 1 hour. Medium was removed and cells were washed twice with PBS. 50 μof 2-deoxyglucose (DG, 1 mM per well) was added and incubated for 1 hour at room temperature (RT). 25 μl of stop buffer added and mixed briefly, then 25 μl of neutralization buffer added and shaken briefly. 100 μl of 2DG6P detection reagent was added and the mixture shaken for 3 hours at RT. Luminescence was recorded with 135 gain efficiency using a SYNERGY H1 (BioTek Instruments, Inc., Winooski, Vt.) luminometer. […] These supernatants (0.5 ml) were further used in hepatocyte (cultured with 0.5×10^6 fecal exosomes) cultures to determine the which cytokines were induced by fecal exosome treatment of macrophages.

phosphatidylcholine [PC (34:2)]: in the data set with AhR in FL83B cells, the “AhR expression in hepatocytes” value is on record as “confirmed in a PC-dose dependent manner”. In addition, the “glucose uptake, dose dependence” value in data set [1] was “inhibited in a PC-dose dependent manner”.

The record behind these values is US20220288130A1, “COMPOSITIONS AND METHODS FOR DIAGNOSIS AND TREATMENT OF METABOLIC DISEASES AND DISORDERS” (University of Louisville Research Foundation, Inc., priority 2019, published 2022).
